# Measurements as given in patent publication US20170190671A1, “BIS(ARYL)CATECHOL DERIVATIVES AS HERBICIDES” (E I DU PONT DE NEMOURS AND COMPANY, priority 2014, published 2017).
# Experiments:
# Assay in all cases: Test C postemergence
# Format in all cases: in vivo
# [1] = tested on: velvetleaf (Abutilon theophrasti); conditions: Abutilon theophrasti, post-emergence, Postemergence, scale 0 to 100, read-out: Plant response rating, Velvetleaf
# corn (Zea mays) = conditions: Zea mays, post-emergence, 336 h, Postemergence, scale 0 to 100
# wild oat (Avena fatua) = conditions: Avena fatua, post-emergence, Postemergence, scale 0 to 100, read-out: Plant response rating, Oat, Wild
# [2] = tested on: barnyardgrass (Echinochloa crus-galli); conditions: Echinochloa crus-galli, post-emergence, Postemergence, scale 0 to 100, read-out: Plant response rating, Barnyardgrass
# soybean (Glycine max) = conditions: Glycine max, post-emergence, Postemergence, scale 0 to 100, read-out: Plant response rating, Soybean
# kochia (Kochia scoparia) = conditions: Bassia scoparia, post-emergence, Postemergence, scale 0 to 100, read-out: Plant response rating, Kochia
# [3] = tested on: pigweed (Amaranthus retroflexus); conditions: Amaranthus retroflexus, post-emergence, 336 h, Postemergence, scale 0 to 100, read-out: Plant response rating, Pigweed
# [4] = tested on: blackgrass (Alopecurus myosuroides); conditions: Alopecurus myosuroides, post-emergence, 336 h, Postemergence, scale 0 to 100, read-out: Plant response rating, Blackgrass
# [5] = tested on: oilseed rape (Brassica napus); conditions: Brassica napus, post-emergence, Postemergence, scale 0 to 100, read-out: Plant response rating, Oilseed Rape
# [6] = tested on: ragweed (common ragweed, Ambrosia elatior); conditions: Ambrosia artemisiifolia, post-emergence, 336 h, Postemergence, scale 0 to 100, read-out: Plant response rating, Ragweed
# [7] = tested on: johnsongrass (Sorghum halepense); conditions: Sorghum halepense, post-emergence, 336 h, Postemergence, scale 0 to 100, read-out: Plant response rating, Johnsongrass
# [8] = tested on: yellow nutsedge (Cyperus esculentus); conditions: Cyperus, post-emergence, 336 h, Postemergence, scale 0 to 100, read-out: Plant response rating, Nutsedge, Yellow
# [9] = tested on: waterhemp (common waterhemp, Amaranthus rudis); conditions: Amaranthus tuberculatus, post-emergence, Postemergence, scale 0 to 100, read-out: Plant response rating, Waterhemp
# [10] = tested on: winter wheat (Triticum aestivum); conditions: Triticum aestivum, post-emergence, 336 h, Postemergence, scale 0 to 100, read-out: Plant response rating, Wheat
# [11] = tested on: chickweed (common chickweed, Stellaria media); conditions: Stellaria media, post-emergence, Postemergence, scale 0 to 100, read-out: Plant response rating, Chickweed
# [12] = tested on: lambsquarters (Chenopodium album); conditions: Chenopodium album, post-emergence, 336 h, Postemergence, scale 0 to 100, read-out: Plant response rating, Lambsquarters
# [13] = tested on: Italian ryegrass (Lolium multiflorum); conditions: Lolium multiflorum, post-emergence, 336 h, Postemergence, scale 0 to 100, read-out: Plant response rating, Ryegrass, Italian
# [14] = tested on: large (Lg) crabgrass (Digitaria sanguinalis); conditions: Digitaria sanguinalis, post-emergence, 336 h, Postemergence, scale 0 to 100, read-out: Plant response rating, Crabgrass, Large
smiles,measurement,setting,value
"N#Cc1cccc(Oc2ncc(Cl)cn2)c1Oc1ccc(Cl)cn1 [Compound 16, 2-[(5-chloro-2-pyridinyl)oxy]-3-[(5-chloro-2-pyrimidinyl)oxy]benzonitrile]",pest or weed control at 31 g/ha,[1]; 31 g ai/ha,65%
same,pest or weed control at 62 g/ha,[1]; 62 g ai/ha,60%
same,pest or weed control at 125 g/ha,[1]; 125 g ai/ha,70%
same,"Corn plant response rating (crop injury, 0 = no effect, 100 = complete kill) at 16 g/ha",corn (Zea mays); 16 g ai/ha,10%
same,"Corn plant response rating (crop injury, 0 = no effect, 100 = complete kill) at 31 g/ha",corn (Zea mays); 31 g ai/ha,20%
same,"Corn plant response rating (crop injury, 0 = no effect, 100 = complete kill) at 62 g/ha",corn (Zea mays); 62 g ai/ha,10%
same,"Corn plant response rating (crop injury, 0 = no effect, 100 = complete kill) at 125 g/ha",corn (Zea mays); 125 g ai/ha,15%
same,pest or weed control at 31 g/ha,wild oat (Avena fatua); 31 g ai/ha,10%
same,pest or weed control at 62 g/ha,wild oat (Avena fatua); 62 g ai/ha,5%
same,pest or weed control at 125 g/ha,wild oat (Avena fatua); 125 g ai/ha,5%
same,pest or weed control at 16 g/ha,[2]; 16 g ai/ha,10%
same,pest or weed control at 31 g/ha,[2]; 31 g ai/ha,15%
same,pest or weed control at 62 g/ha,[2]; 62 g ai/ha,15%
same,pest or weed control at 125 g/ha,[2]; 125 g ai/ha,20%
same,plant injury at 31 g/ha,soybean (Glycine max); 31 g ai/ha,70%
same,plant injury at 62 g/ha,soybean (Glycine max); 62 g ai/ha,45%
same,plant injury at 125 g/ha,soybean (Glycine max); 125 g ai/ha,55%
same,pest or weed control at 16 g/ha,kochia (Kochia scoparia); 16 g ai/ha,90%
same,pest or weed control at 31 g/ha,kochia (Kochia scoparia); 31 g ai/ha,90%
same,pest or weed control at 62 g/ha,kochia (Kochia scoparia); 62 g ai/ha,90%
same,pest or weed control at 125 g/ha,kochia (Kochia scoparia); 125 g ai/ha,95%
same,pest or weed control at 31 g/ha,[3]; 31 g ai/ha,80%
same,pest or weed control at 62 g/ha,[3]; 62 g ai/ha,85%
same,pest or weed control at 125 g/ha,[3]; 125 g ai/ha,100%
same,pest or weed control at 16 g/ha,[4]; 16 g ai/ha,5%
same,pest or weed control at 31 g/ha,[4]; 31 g ai/ha,5%
same,pest or weed control at 62 g/ha,[4]; 62 g ai/ha,5%
same,pest or weed control at 125 g/ha,[4]; 125 g ai/ha,10%
same,plant injury at 31 g/ha,[5]; 31 g ai/ha,70%
same,plant injury at 62 g/ha,[5]; 62 g ai/ha,80%
same,plant injury at 125 g/ha,[5]; 125 g ai/ha,50%
same,pest or weed control at 31 g/ha,[6]; 31 g ai/ha,60%
same,pest or weed control at 62 g/ha,[6]; 62 g ai/ha,50%
same,pest or weed control at 125 g/ha,[6]; 125 g ai/ha,70%
same,pest or weed control at 16 g/ha,[7]; 16 g ai/ha,5%
same,pest or weed control at 31 g/ha,[7]; 31 g ai/ha,5%
same,pest or weed control at 62 g/ha,[7]; 62 g ai/ha,10%
same,pest or weed control at 125 g/ha,[7]; 125 g ai/ha,10%
same,pest or weed control at 31 g/ha,[8]; 31 g ai/ha,10%
same,pest or weed control at 62 g/ha,[8]; 62 g ai/ha,10%
same,pest or weed control at 125 g/ha,[8]; 125 g ai/ha,15%
same,pest or weed control at 31 g/ha,[9]; 31 g ai/ha,90%
same,pest or weed control at 62 g/ha,[9]; 62 g ai/ha,95%
same,pest or weed control at 125 g/ha,[9]; 125 g ai/ha,90%
same,plant injury at 31 g/ha,[10]; 31 g ai/ha,0%
same,plant injury at 62 g/ha,[10]; 62 g ai/ha,5%
same,plant injury at 125 g/ha,[10]; 125 g ai/ha,0%
same,pest or weed control at 16 g/ha,[11]; 16 g ai/ha,25%
same,pest or weed control at 31 g/ha,[11]; 31 g ai/ha,60%
same,pest or weed control at 62 g/ha,[11]; 62 g ai/ha,80%
same,pest or weed control at 125 g/ha,[11]; 125 g ai/ha,80%
same,pest or weed control at 16 g/ha,[12]; 16 g ai/ha,65%
same,pest or weed control at 31 g/ha,[12]; 31 g ai/ha,80%
same,pest or weed control at 62 g/ha,[12]; 62 g ai/ha,75%
same,pest or weed control at 125 g/ha,[12]; 125 g ai/ha,90%
same,pest or weed control at 31 g/ha,[13]; 31 g ai/ha,10%
same,pest or weed control at 62 g/ha,[13]; 62 g ai/ha,5%
same,pest or weed control at 125 g/ha,[13]; 125 g ai/ha,15%
same,pest or weed control at 16 g/ha,[14]; 16 g ai/ha,10%
same,pest or weed control at 31 g/ha,[14]; 31 g ai/ha,15%
same,pest or weed control at 62 g/ha,[14]; 62 g ai/ha,15%
same,pest or weed control at 125 g/ha,[14]; 125 g ai/ha,20%
